Laboratory results from patent publication US10053455B2, “Diazaspiroalkaneone-substituted oxazole derivatives as spleen tyrosine kinase inhibitors” (AB SCIENCE, priority 2014, dated 2018).

Experiments:
[1] = tested on: Salmonella typhimurium strain TA98; test: AMES mutagenic assay, TA98 strain
Method: Mutagenic activity of test compounds and their metabolites (produced by rat liver S9 fraction) was evaluated in the Salmonella typhimurium strains TA100 and TA98 according to the Ames assay (Toxicology in vitro, (2001), 15: 105-114). […] The results are expressed as a mutagenicity ratio in comparison to solvent controls.
The results are expressed as a ratio of the number of colonies over the number of colonies in the negative control (DMSO).

murine model of asthma = test: Mouse model of asthma: airway responsiveness (FlexiVent); type: in vivo, Balb/c male mice; settings: ovalbumin-sensitized mice, PO twice daily
Method: Balb/c male mice, 8 weeks old, were purchased from Janvier (Le Genest-Saint-Isle; FRANCE) and bred in the animal facility for 4 weeks. Drugs were dissolved in drinking solvent (80% water; 10% Tween 80 and 10% isopropanediol). It was aliquoted and stored at −20° C. Each mouse received drugs twice a day. The weight of animals was calculated before and after treatment.
Mice, 9 weeks of age, were sensitized with 50 μg of ovalbumin (Sigma-Aldrich, Germany) adsorbed to 2 mg Al(OH)3 (Prolabo, France) and diluted in physiological saline (0.9% NaCl). Ovalbumin was injected intraperitoneally on days 1 and 7. Sensitization was followed by intranasal challenges with 10 μg of ovalbumin diluted in 0.9% NaCl, each day from day 18 to day 21. On days 17 to 21, animals treated with drugs received 100 μl of a solution at 15 mg/ml, at 7.5 mg/ml or at 3.75 mg/ml administered per os twice a day during 5 days. These treatments corresponded to concentration of 60 mg/mouse kg, 30 mg/mouse kg and 15 mg/mouse kg respectively.
The airway responsiveness was measured using the invasiveness FlexiVent® (SCIREQ) technique. […] The baseline values were measured after saline solution nebulization and airway hyperresponsiveness evaluated after nebulization of a 0.26M metacholine solution (50 mg/ml).

Myeloperoxidase (MPO) = test: Myeloperoxidase activity in K/BxN arthritis model; type: in vivo, C57Bl/6 mice
Method: K/B×N serum pools were prepared from arthritic mice at 8 weeks of age. The mice were pre-treated with SYK inhibitors by two per os administration for two days before induction of arthritis. Arthritis was induced in the C57Bl/6 mice (8 weeks of age) by intraperitoneal injection (7.5 μl serum per g weight) at days 0 and 2.
The treatment with SYK inhibitors was continued for 13 days. The control mice were injected with solvent before the induction of arthritis and during the course of the disease. The compounds were dissolved in a solution containing 10% of Tween 80 and 10% 1-2 propandiol. It was prepared before administration.
MPO activity was determined following published protocol (American Journal of Pathology, (2000), 156 (6):2169-2177). Briefly, tissue samples were weighed and suspended in 50 mmol/L potassium phosphate buffer (pH 6.0) containing 5 mg/ml hexadecyltrimethylammonium bromide (Sigma Chemical Co.) at a ratio of 50 mg tissue to 1 ml of buffer. […] Using a microtiter plate scanner, 200 μl of the reaction mixture (containing 16.7 mg of o-dianisidine (Sigma Chemical Co.), […] of distilled H2O, […] of potassium-phosphate buffer, and 50 μl of 1% H2O2) was added to each well containing 7 μl of sample in a standard 96-well plate and three absorbance readings at 5 min intervals at 450 nm were recorded.

c-Met = c-Met (Homo sapiens (Human), UniProt P08581); test: HTRF kinase assay, c-Met; type: biochemical; settings: enzymatic determination
Chain of c-Met (P08581 25-1390): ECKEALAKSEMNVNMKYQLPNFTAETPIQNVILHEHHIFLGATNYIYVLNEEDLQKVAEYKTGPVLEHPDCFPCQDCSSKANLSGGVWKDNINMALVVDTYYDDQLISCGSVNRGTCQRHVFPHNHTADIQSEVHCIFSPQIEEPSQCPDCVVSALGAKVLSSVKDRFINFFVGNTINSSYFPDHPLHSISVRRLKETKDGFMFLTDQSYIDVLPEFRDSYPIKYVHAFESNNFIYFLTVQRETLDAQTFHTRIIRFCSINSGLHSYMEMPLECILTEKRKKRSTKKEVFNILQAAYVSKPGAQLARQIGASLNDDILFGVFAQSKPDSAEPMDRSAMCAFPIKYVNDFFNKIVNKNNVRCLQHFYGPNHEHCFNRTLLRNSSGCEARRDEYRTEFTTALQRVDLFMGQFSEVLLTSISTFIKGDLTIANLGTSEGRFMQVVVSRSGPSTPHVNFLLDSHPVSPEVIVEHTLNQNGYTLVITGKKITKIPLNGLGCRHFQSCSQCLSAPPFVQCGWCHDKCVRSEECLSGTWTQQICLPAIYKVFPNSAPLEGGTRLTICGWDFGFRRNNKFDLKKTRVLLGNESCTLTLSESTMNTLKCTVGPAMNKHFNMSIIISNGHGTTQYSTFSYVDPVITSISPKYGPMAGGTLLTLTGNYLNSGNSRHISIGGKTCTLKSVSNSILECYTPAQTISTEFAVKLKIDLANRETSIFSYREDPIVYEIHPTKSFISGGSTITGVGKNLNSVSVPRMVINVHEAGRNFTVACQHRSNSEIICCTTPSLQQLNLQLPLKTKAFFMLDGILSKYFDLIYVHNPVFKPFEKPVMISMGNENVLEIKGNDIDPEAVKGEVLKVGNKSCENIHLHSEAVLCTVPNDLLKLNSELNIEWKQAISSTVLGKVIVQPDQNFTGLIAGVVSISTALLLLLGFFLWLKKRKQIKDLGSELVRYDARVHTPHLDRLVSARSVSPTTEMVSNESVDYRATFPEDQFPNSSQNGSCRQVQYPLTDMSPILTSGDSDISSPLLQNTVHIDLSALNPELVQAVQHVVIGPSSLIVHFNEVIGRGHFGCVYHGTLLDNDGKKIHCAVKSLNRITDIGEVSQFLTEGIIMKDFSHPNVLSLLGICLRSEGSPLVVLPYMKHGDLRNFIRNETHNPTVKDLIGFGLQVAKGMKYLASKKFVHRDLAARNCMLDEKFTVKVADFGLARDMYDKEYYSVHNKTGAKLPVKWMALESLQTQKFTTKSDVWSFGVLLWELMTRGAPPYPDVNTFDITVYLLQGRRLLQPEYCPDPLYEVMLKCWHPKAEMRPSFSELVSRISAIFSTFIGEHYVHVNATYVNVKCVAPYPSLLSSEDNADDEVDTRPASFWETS
Method: Most of the kinases tested in this study were cloned, expressed and purified in the facilities of the inventors. They were expressed either as N-terminus hexahistidine-, hexahistidine-asparagine- or GST-tagged enzymes in a baculovirus or in a Colibacille expression system. Remaining enzymes (JAKs) were purchased from Millipore or Proqinase. For each enzyme, steady state kinetic parameters were determined and validated with known inhibitors.
The analysis of the effect of compounds on kinase activity was assessed with the HTRF® KinEASE assay (Cisbio International), an immuno-assay based on the quantification of the level of phosphorylation of a biotinylated peptide substrate using anti-phospho-specific antibody labeled with Europium (Eu^3+) cryptate. This assay comprises two steps: —an enzymatic step, during which the peptide substrate, the kinase, ATP, Mg^2+ and/or Mn^2+ are incubated with varying concentration of drug (from 0 to 10 μM); —a detection step, at the end of the reaction (stopped by addition of EDTA which chelates Mg^2+), the antibody anti-phospho peptide-Eu^3+ (emission 620 nm) and streptavidin XL-665 (emission 665 nm) are added to the reaction mix. […] Results are expressed in delta fluorescence (DF) unit defined as follow DF %=[(ratio−ratio blank)/(ratio blank)]*100, where ratio=(665 nm/620 nm)*10^4. […]

[2] = TA98, absence of S-9, 0.5 μg per well
[3] = TA98, absence of S-9, 1.4 μg per well
[4] = TA98, absence of S-9, 4.1 μg per well
[5] = TA98, absence of S-9, 12.3 μg per well
[6] = TA98, absence of S-9, 37 μg per well
[7] = TA98, absence of S-9, 111.1 μg per well
[8] = TA98, absence of S-9, 333.3 μg per well
[9] = TA98, absence of S-9, 1000 μg per well
[10] = TA98, presence of S-9, 0.5 μg per well
[11] = TA98, presence of S-9, 1.4 μg per well
[12] = TA98, presence of S-9, 4.1 μg per well
[13] = TA98, presence of S-9, 12.3 μg per well
[14] = TA98, presence of S-9, 37 μg per well
[15] = TA98, presence of S-9, 111.1 μg per well
[16] = TA98, presence of S-9, 333.3 μg per well
[17] = TA98, presence of S-9, 1000 μg per well

With Cc1ccnc(Nc2cccc(-c3cnc(N4CCNC(=O)C45CC5)o3)c2)n1 [Compound 001, 4-{5-[3-(4-Methyl-pyrimidin-2-ylamino)-phenyl]-oxazol-2-yl}-4,7-diaza-spiro[2.5]octan-8-one] the “Mean revertant colony counts” value [1, 2] was 7.3, the Ratio treated/solvent [1, 2] was 1.7 and the “Mean revertant colony counts” value [1, 3] was 4.3. The Ratio treated/solvent [1, 3] was 1.0, the “Mean revertant colony counts” value [1, 4] was 6.3 and the Ratio treated/solvent [1, 4] was 1.5. The “Mean revertant colony counts” value [1, 5] was 5.3, the Ratio treated/solvent [1, 5] was 1.2 and the “Mean revertant colony counts” value [1, 6] was 8.3. The Ratio treated/solvent [1, 6] was 1.9, the “Mean revertant colony counts” value [1, 7] was 6.3 and the Ratio treated/solvent [1, 7] was 1.5. The “Mean revertant colony counts” value [1, 8] was 4.3, the Ratio treated/solvent [1, 8] was 1.0 and the “Mean revertant colony counts” value [1, 9] was 3.7. The Ratio treated/solvent [1, 9] was 0.8, the “Mean revertant colony counts” value [1, 10] was 10.3 and the Ratio treated/solvent [1, 10] was 3.9. The “Mean revertant colony counts” value [1, 11] was 7.3, the Ratio treated/solvent [1, 11] was 2.8 and the “Mean revertant colony counts” value [1, 12] was 9.3. The Ratio treated/solvent [1, 12] was 3.5, the “Mean revertant colony counts” value [1, 13] was 6.7 and the Ratio treated/solvent [1, 13] was 2.5. The “Mean revertant colony counts” value [1, 14] was 5.7, the Ratio treated/solvent [1, 14] was 2.1 and the “Mean revertant colony counts” value [1, 15] was 7.3. The Ratio treated/solvent [1, 15] was 2.8, the “Mean revertant colony counts” value [1, 16] was 6.3 and the Ratio treated/solvent [1, 16] was 2.4. The “Mean revertant colony counts” value [1, 17] was 5.0, the Ratio treated/solvent [1, 17] was 1.9 and the mutagenic activity ([1]; TA98, with or without liver metabolic activation system (S9 mix)) was “did not show any mutagenic activity”. For the same molecule, the bronchial hyper-responsiveness (murine model of asthma) was “reduced bronchial hyper-responsiveness in a dose-dependent manner”, the MPO activity (Myeloperoxidase (MPO); KBxN + 15 mg/kg b.i.d.) was 1.031 ± 0.24 U/ml and the MPO activity (Myeloperoxidase (MPO); KBxN + 50 mg/kg b.i.d.) was 0.348 ± 0.08 U/ml. It also gave an IC50 (c-Met) of 10 µM.
